Among the data in EP0456257A1, “Silver halide color photographic material” (FUJI PHOTO FILM CO., LTD., priority 1990, dated 1991) are maximum absorption wavelength and molecular extinction coefficient values, retold here.

This series can be described thus: Spectral absorption of yellow-colored coupler in methanol. The class given is physicochemical. The method, then:
The melting point of the compound was 269 to 272" C (decomposition). The structure of the compound was confirmed by H-NMR spectrum, mass spectrum and elementary analysis.
75 ml of methyl cellosolve and 26 ml of water were added to 10.1 g of Compound b (prepared as in Synthesis Example 1) and 10.7 g of sodium acetate. The diazonium solution was then added to the system with stirring under cooling with ice. After the dropwise addition was completed, the system was further stirred for 1 hour under ice-cooling and then for 2 hours at room temperature. The resulting crystal was filtered off. The crystal was then dispersed in 200 ml of methanol. A solution of 2.2 g of sodium hydroxide in 10 ml of water was added dropwise to the dispersion. The material was stirred for 3 hours. The system was neutralized with concentrated hydrochloric acid. The resulting crystal was washed with water and then with methanol, and then dried. The resulting crude crystal was purified with heat methanol in the same manner as in Synthesis Example 1 to obtain 14.8 g of Exemplary Coupler (YC-3). The melting point of the compound was 246 to 251 ° C (decomposition). The structure of the compound was confirmed by 'H-NMR spectrum, mass spectrum and elementary analysis.
13.0 g of Compound g prepared by the synthesis method as described in U.S. Patent 4,138,258 was dissolved in 40 ml of N,N-dimethylformamide. […]

Turning to `CCCCCCCCC(CCCCCC)COCCCNC(=O)c1cc(OCCOc2ccc(N=Nc3c(C)c(C#N)c(=O)n(-c4ccccc4C(=O)O)c3O)cc2)c2ccccc2c1O` (centres unmarked) [YC-30], the maximum absorption wavelength worked out at 458.2 nm and the molecular extinction coefficient is given as 42,800.
